Data taken from patent US9738591B2, “Antimicrobial compounds” (priority 2009, dated 2017).
Converted amounts (≈) assume the structure as drawn.

How the values were obtained:
[1] = test system: Micrococcus luteus ATCC 10240; assay: Disk diffusion; details: 10 mg/ml, 20 μl
[2] = test system: Enterococcus faecium ATCC 19434; assay: Disk diffusion; format: cell-based; details: 10 mg/ml, 20 μl
[3] = test system: Staphylococcus xylosus ATCC 29971; assay: Disk diffusion; details: 10 mg/ml, 20 μl
[4] = Storage stability of master stock solution; format: physicochemical; details: 10 mg/ml in 100% DMSO, foil-covered glass bottles, −20° C.; results not shown
Method: 10 mg/ml stock solution of TSB007 was prepared in 100% DMSO. Master stock solutions of TSB007 (10 mg/ml) were made by dissolving 20 mg dehydrated compound in 2 ml 100% DMSO. They were stored in foil-covered glass bottles at −20° C. Master stocks stored in this way retained full antimicrobial activity for a minimum period of 6 weeks (results not shown).

S. pyogenes NCTC 8302 = assay: MIC and MBC by broth microdilution; format: cell-based; details: Streptococcus pyogenes, NCTC8302, CA-MHB+LHB, two independent replicates
Method: (§1) The method used was based on CLSI protocols for broth microdilution testing of these species. As recommended by CLSI, inocula were prepared by direct colony suspension, and the media used were cation-adjusted Mueller Hinton broth (CA-MHB) for Staphylococcus spp. and CA-MHB containing 5% lysed horse blood (CA-MHB+LHB) for Streptococcus spp. Briefly, 24 h blood agar plate (BA) cultures of Staphylococcus aureus strains NCTC 6571, ATCC 29213, ATCC 33592 (MRSA) and NCTC 10442 (MRSA), Staphylococcus epidermidis ATCC 29971, Staphylococcus xylosus ATCC 29971, Streptococcus pneumoniae strains ATCC 49619 and ATCC 6305, and Streptococcus pyogenes strains NCTC 8191 and NCTC 8302 were used to prepare 0.5 McFarland suspensions in saline. Two 640 μg/ml working stocks of TSB007 were prepared from a fresh master stock, one in CA-MHB for testing against the Staphylococcus spp. and the other in CA-MHB+LHB for testing against Streptococcus spp. The working stocks were further diluted 1/10 in these broths for adding to microtitre trays to test MICs of 32, 16, 8, 4, 2, 1, 0.5, 0.25, 0.125 and 0.06 μg/ml.
(§2) The wells of two 96-well microtitre trays (one for Staphylococcus spp. and one for Streptococcus spp.) were filled with 100 μl of the appropriate broth, except for the first column. The last column, a sterility control containing no TSB007 or inoculum, was filled with an additional 100 μl broth. Then 100 μl of the 64 μg/ml TSB007 solution was added to the first two columns, the contents of column 2 was mixed, then 100 μl of this was used in two-fold serial dilutions along the rest of the tray except the last two columns. The final 100 μl was discarded. […] Finally, to the first 11 wells of one row per strain, 100 μl of a 10^−2 dilution (in the appropriate broth) of the 0.5 McFarland suspension was added. The microtitre trays were then incubated at 35° C. for 24 h before the MICs were read visually. Wells were further subcultured (10 μl drop onto BA then incubated at 35° C. for 24 h) and colonies subsequently counted to determine minimum bactericidal concentrations (MBCs). The concentration of the initial inoculum was confirmed on BA by counting colonies from 2×10 μl spots of 10^−5 dilutions of the 0.5 McFarland suspensions. Testing was performed on two separate occasions.

[5] = test system: S. aureus ATCC 33592 (MRSA); assay: MIC and MBC by broth microdilution; format: cell-based; details: Staphylococcus aureus, CA-MHB, two independent replicates
Method: as §1, §2

[6] = test system: S. aureus NCTC 10442 (MRSA); assay: MIC and MBC by broth microdilution; format: cell-based; details: Staphylococcus aureus, CA-MHB, two independent replicates
Method: as §1, §2

S. pyogenes NCTC 8191 = assay: MIC and MBC by broth microdilution; format: cell-based; details: Streptococcus pyogenes, NCTC8191, CA-MHB+LHB, two independent replicates
Method: as §1, §2

[7] = test system: Stenotrophomonas maltophilia M2495; assay: Disk diffusion; format: cell-based; details: 10 mg/ml, 20 μl, strain M2495
[8] = test system: Salmonella enterica subsp. enterica serovar Typhimurium ATCC 13311; assay: Disk diffusion; details: 10 mg/ml, 20 μl; repeat
[9] = test system: Klebsiella edwardsii NCTC 10896; assay: Disk diffusion; format: cell-based; details: 10 mg/ml, 20 μl
L929 cells = assay: Cytotoxicity, neutral red assay; format: cell-based; details: for ratio of the well's OD compared to the OD of the negative control, Average (SD) (n = 2): 24 h, ratios ≦0.5 indicate a cytostatic effect
Method: L929 cells grown to approximately 80% confluency in HGM-M were washed with Hanks, trypsonised to detach the cells from the flask, then diluted to 10^5 cells/ml in HGM-M and 200 μl used to inoculate the wells of a 96-well microtitre tray. After incubation for 24 h at 37° C., adherent cells were washed with Hanks and then 100 μl HGM-M was added to the wells. Fresh TSB007 master stock solution (10 mg/ml) was serially 10-fold diluted in HGM-M to make solutions of 1000, 100, 10 and 1 μg/ml of TSB007. To the wells of the microtitre tray, 100 μl of these TSB007 solutions were also added, giving final concentrations of 500, 50, 5 and 0.5 μg/ml of TSB007. The same dilutions of DMSO were prepared and tested to check that cytotoxic activity was not due to the DMSO. A negative control was prepared containing only HGM-M, and a positive control was prepared by adding 100 μl of carboplatin (10 mg/ml; Mayne Pharma Pty Ltd, Australia) to wells containing 100 μl HGM-M. Controls and dilutions of TSB007 and DMSO were prepared in duplicate.
After 24 h shaking at 37° C., cytotoxicity was quantified using the neutral red assay. The cells were washed with Hanks then 200 μl HGM-M and 20 μl Neutral Red (3.3 g/L; Sigma-Aldrich) were added to each well. After 2 h shaking at 37° C., cells were washed twice with PBS then 200 μl of 1% acetic acid in 50% EtOH was added to each well to solubilise the stain. After 15 min shaking at 37° C. the OD690 nm of the wells was measured and subtracted from the OD540 nm. Results were then blanked against wells to which no cells had been added, and converted to a ratio of the OD of the negative control. Ratios […] indicated a cytostatic effect. Testing was performed on two separate occasions.

## O=C(O)c1ccc(/C=C/c2cc(/C=C/c3ccc(C(=O)O)cc3)cc(/C=C/c3ccc(C(=O)O)cc3)c2)cc1 [TSB007]
[1]; 24 h
  Zone diameters, 24 h TSB007: 26 trim
[1]; 48 h
  Zone diameters, 48 h TSB007: 26 trim
[1]; repeat
  Zone diameters, Repeat Results: 32 trim
[2]; 24 h
  Zone diameters, 24 h TSB007: 11 trim
[2]; 48 h
  Zone diameters, 48 h TSB007: 10 trim
[3]; 24 h
  Zone diameters, 24 h TSB007: 17 trim
[3]; repeat
  Zone diameters, Repeat Results: 18 trim
[4]
  minimum period for which master stocks retained full antimicrobial activity: ≥ 6 weeks
S. pyogenes NCTC 8302; 35° C., 24 h
  MIC: > 32 µg/mL
S. pyogenes NCTC 8302
  MBC: > 32 µg/mL
[5]; 35° C., 24 h
  MIC: 2 to 4 µg/mL (≈ 3.87 to 7.74 µM)
[5]
  MBC: > 32 µg/mL
[6]; 35° C., 24 h
  MIC: 2 to 4 µg/mL (≈ 3.87 to 7.74 µM)
[6]
  MBC: > 32 µg/mL
S. pyogenes NCTC 8191; 35° C., 24 h
  MIC: > 32 µg/mL
S. pyogenes NCTC 8191
  MBC: > 32 µg/mL
[7]
  Zone diameters, Repeat Results: 9 trim
[8]
  Zone diameters, Repeat Results: 11 trim
[9]
  Zone diameters, Repeat Results: 9 trim
L929 cells; 0.5 μg/ml
  ratio of the well's OD compared to the OD of the negative control, Average (SD) (n = 2): 0.846 (0.285)
L929 cells; 5 μg/ml
  ratio of the well's OD compared to the OD of the negative control, Average (SD) (n = 2): 0.882 (0.021)
L929 cells; 50 μg/ml
  ratio of the well's OD compared to the OD of the negative control, Average (SD) (n = 2): 0.867 (0.030)
L929 cells; 500 μg/ml
  cytostatic effect on L929 cells: cytostatic
  ratio of the well's OD compared to the OD of the negative control, Average (SD) (n = 2): 0.384 (0.009)
L929 cells; 0.5-50 μg/ml
  cytostatic effect on L929 cells: not significantly cytostatic
